Read-outs that look alike come from different tables or passages of the source.
What was measured:
Assay type in all cases: biochemical
[1] = target: 320 wild-type protein kinases (Homo sapiens, UniProt Q16816); conditions: singlicate
Excerpt: (§1) Table S4. Profiling of two compounds at two concentrations against 320 wild-type protein kinases; singlicate measurement; Residual activities (% of control).

[2] = target: 320 wild-type protein kinases (Homo sapiens, UniProt P51957); conditions: singlicate
Excerpt: as §1

[3] = target: 320 wild-type protein kinases (Homo sapiens, UniProt P04629); conditions: kinase TRK-A, singlicate
Excerpt: as §1

[4] = target: 320 wild-type protein kinases (Homo sapiens, UniProt P24941); conditions: singlicate
Excerpt: as §1

[5] = target: T1, 320 wild-type protein kinases (Homo sapiens, UniProt Q8NG66); conditions: singlicate
T1 sequence (Q8NG66 1-645): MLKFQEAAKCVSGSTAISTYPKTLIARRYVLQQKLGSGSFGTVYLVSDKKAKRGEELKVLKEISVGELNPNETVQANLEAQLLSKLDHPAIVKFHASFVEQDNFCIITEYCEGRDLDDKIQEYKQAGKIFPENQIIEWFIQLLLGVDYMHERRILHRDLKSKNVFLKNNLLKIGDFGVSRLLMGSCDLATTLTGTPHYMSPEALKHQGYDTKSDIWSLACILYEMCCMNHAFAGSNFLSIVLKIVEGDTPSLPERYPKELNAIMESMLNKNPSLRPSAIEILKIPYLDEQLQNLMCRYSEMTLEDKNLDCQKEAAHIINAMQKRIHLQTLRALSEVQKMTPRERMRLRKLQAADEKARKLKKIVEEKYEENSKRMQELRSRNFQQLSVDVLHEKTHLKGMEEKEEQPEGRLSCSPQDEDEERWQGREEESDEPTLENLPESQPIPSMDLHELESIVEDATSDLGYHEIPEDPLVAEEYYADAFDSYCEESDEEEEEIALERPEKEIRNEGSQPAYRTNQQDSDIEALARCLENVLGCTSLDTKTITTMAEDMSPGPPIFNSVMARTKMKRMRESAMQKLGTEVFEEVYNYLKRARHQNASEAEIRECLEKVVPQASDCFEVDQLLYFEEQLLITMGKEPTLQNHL
Excerpt: as §1

[6] = target: 320 wild-type protein kinases (Homo sapiens, UniProt Q00534); conditions: singlicate
Excerpt: as §1

[7] = target: 320 wild-type protein kinases (Homo sapiens, UniProt Q9BYT3); conditions: kinase STK33, singlicate
Excerpt: as §1

[8] = target: T2, 320 wild-type protein kinases (Homo sapiens, UniProt P15735); conditions: singlicate
T2 sequence (P15735 1-406): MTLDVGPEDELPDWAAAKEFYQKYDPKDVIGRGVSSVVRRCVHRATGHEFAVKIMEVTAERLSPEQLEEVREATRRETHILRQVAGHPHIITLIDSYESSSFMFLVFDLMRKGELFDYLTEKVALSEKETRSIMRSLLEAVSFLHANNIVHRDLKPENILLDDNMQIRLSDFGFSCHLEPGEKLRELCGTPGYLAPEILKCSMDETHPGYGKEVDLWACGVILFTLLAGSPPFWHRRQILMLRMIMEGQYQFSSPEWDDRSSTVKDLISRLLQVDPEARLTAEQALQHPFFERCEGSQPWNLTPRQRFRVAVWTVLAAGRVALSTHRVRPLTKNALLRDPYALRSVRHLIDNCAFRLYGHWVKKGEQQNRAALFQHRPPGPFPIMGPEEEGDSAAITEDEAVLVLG
Excerpt: as §1

[9] = target: 320 wild-type protein kinases (Homo sapiens, UniProt P41240); conditions: CSK, singlicate
Excerpt: as §1

[10] = target: 320 wild-type protein kinases (Homo sapiens, UniProt P15056); conditions: B-RAF, singlicate
Excerpt: as §1

[11] = target: T3, 320 wild-type protein kinases (Homo sapiens, UniProt P36896); conditions: ACV-R1B, singlicate
T3 sequence (P36896 24-505): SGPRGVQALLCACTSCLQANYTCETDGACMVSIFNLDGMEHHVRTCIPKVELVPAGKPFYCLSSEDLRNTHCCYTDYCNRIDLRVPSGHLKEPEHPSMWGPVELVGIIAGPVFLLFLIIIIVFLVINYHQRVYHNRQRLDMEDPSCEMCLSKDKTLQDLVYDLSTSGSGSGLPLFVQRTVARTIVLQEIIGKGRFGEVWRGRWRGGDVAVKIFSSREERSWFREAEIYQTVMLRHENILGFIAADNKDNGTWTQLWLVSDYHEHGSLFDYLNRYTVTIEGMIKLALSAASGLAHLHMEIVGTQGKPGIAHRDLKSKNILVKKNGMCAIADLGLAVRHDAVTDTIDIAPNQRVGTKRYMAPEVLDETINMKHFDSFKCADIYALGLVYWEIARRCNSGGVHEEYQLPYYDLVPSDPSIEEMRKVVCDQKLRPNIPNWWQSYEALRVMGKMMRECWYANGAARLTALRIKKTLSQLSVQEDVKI
Excerpt: as §1

[12] = target: 320 wild-type protein kinases (Homo sapiens, UniProt P37023); conditions: singlicate
Excerpt: as §1

[13] = target: 320 wild-type protein kinases (Homo sapiens, UniProt P23443); conditions: kinase S6K, singlicate
Excerpt: as §1

[14] = target: 320 wild-type protein kinases (Homo sapiens, UniProt Q5TCX8); conditions: singlicate
Excerpt: as §1

320 wild-type protein kinases (Homo sapiens, UniProt P23443), sequence (P23443 whole entry): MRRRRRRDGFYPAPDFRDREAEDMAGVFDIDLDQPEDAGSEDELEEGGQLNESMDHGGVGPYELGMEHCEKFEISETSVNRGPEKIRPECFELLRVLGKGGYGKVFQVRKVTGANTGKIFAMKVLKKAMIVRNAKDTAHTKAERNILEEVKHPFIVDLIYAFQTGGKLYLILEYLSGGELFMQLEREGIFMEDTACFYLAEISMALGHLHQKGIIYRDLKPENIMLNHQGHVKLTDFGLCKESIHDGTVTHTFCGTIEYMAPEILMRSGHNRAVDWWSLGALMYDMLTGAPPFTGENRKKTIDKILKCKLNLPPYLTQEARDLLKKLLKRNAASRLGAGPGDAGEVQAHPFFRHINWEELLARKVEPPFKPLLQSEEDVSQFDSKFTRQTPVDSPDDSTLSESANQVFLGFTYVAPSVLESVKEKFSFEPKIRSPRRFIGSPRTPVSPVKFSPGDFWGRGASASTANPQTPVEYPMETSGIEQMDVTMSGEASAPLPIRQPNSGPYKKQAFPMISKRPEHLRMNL
320 wild-type protein kinases (Homo sapiens, UniProt P51957), sequence (P51957 whole entry): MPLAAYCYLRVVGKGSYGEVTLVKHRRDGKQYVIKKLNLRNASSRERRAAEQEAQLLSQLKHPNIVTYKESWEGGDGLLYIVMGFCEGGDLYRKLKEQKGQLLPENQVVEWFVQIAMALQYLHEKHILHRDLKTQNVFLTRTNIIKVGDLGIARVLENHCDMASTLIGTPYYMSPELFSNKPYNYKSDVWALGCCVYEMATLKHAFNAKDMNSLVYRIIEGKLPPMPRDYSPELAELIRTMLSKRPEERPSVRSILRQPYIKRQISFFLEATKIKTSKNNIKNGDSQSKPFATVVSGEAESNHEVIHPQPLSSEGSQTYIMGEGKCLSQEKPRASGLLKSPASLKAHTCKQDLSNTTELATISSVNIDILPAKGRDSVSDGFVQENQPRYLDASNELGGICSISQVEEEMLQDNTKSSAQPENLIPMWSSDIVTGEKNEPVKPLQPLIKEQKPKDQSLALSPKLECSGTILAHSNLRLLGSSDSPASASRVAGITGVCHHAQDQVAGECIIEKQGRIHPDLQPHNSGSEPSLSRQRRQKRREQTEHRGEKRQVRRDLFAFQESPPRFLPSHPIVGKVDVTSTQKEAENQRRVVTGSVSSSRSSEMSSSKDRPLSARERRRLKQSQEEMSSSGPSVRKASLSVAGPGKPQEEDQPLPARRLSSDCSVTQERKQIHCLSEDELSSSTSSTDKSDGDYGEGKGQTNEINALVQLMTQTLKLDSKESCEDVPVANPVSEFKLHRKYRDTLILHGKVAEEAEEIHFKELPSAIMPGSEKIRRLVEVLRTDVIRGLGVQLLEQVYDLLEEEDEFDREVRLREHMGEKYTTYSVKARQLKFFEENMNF
320 wild-type protein kinases (Homo sapiens, UniProt Q5TCX8), sequence (Q5TCX8 whole entry): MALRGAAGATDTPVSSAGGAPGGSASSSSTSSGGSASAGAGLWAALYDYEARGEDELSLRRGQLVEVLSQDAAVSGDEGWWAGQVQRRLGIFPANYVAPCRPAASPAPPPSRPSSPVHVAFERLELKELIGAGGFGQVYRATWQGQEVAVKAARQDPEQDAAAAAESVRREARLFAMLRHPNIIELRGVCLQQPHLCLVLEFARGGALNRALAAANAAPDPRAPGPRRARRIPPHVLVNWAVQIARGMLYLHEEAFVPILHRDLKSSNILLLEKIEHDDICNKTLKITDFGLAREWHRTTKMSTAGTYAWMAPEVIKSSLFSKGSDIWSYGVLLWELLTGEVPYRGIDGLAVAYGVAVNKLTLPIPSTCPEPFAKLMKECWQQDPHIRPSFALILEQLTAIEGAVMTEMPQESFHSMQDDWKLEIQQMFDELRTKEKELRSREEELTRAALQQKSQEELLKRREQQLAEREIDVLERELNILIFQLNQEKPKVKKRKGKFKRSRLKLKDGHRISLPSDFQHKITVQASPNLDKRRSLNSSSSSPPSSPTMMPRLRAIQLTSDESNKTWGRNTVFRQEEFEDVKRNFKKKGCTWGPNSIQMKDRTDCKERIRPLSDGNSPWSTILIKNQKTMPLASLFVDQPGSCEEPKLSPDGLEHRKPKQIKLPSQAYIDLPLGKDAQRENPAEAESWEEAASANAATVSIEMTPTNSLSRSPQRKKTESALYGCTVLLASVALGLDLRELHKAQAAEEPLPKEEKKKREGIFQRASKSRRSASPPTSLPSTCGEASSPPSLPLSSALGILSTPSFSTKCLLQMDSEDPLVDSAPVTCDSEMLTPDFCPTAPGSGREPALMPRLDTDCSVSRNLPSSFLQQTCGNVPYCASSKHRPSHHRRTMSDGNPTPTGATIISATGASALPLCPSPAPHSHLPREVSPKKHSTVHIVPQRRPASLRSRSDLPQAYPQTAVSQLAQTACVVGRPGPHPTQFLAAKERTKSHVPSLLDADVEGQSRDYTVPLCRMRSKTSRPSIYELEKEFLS
320 wild-type protein kinases (Homo sapiens, UniProt P41240), sequence (P41240 whole entry): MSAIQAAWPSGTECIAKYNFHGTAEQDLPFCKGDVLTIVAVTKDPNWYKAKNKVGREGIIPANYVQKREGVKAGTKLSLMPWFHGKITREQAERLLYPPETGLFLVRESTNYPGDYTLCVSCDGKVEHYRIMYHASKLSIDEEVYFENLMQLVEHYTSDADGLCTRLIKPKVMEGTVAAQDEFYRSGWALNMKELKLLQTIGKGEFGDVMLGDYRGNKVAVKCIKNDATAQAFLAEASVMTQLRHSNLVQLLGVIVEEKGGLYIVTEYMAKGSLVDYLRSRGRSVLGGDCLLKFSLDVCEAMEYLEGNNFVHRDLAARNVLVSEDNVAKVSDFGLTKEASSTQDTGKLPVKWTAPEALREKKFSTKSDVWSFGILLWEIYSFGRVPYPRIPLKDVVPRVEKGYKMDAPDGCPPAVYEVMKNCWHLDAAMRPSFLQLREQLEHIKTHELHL
320 wild-type protein kinases (Homo sapiens, UniProt P04629), sequence (P04629 33-796): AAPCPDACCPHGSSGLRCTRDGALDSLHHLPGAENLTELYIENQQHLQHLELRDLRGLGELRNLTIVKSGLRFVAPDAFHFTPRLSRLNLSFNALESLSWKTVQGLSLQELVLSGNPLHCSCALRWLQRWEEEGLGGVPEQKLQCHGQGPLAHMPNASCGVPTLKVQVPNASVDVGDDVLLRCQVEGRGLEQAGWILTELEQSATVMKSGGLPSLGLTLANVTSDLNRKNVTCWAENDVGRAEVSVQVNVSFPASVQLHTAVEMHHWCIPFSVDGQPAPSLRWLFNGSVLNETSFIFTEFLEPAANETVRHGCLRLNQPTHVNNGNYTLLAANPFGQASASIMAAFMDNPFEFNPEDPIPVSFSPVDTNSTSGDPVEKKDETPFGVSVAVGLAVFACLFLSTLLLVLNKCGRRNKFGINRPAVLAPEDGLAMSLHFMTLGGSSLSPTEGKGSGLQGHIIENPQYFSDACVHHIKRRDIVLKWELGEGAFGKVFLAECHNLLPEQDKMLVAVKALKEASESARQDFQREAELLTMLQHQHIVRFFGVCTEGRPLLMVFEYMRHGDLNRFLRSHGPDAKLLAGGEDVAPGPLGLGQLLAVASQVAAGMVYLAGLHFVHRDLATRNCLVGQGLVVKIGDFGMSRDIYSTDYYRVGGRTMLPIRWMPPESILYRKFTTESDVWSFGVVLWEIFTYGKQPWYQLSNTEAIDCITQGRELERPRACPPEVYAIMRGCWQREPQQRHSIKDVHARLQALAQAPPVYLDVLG
320 wild-type protein kinases (Homo sapiens, UniProt P15056), sequence (P15056 whole entry): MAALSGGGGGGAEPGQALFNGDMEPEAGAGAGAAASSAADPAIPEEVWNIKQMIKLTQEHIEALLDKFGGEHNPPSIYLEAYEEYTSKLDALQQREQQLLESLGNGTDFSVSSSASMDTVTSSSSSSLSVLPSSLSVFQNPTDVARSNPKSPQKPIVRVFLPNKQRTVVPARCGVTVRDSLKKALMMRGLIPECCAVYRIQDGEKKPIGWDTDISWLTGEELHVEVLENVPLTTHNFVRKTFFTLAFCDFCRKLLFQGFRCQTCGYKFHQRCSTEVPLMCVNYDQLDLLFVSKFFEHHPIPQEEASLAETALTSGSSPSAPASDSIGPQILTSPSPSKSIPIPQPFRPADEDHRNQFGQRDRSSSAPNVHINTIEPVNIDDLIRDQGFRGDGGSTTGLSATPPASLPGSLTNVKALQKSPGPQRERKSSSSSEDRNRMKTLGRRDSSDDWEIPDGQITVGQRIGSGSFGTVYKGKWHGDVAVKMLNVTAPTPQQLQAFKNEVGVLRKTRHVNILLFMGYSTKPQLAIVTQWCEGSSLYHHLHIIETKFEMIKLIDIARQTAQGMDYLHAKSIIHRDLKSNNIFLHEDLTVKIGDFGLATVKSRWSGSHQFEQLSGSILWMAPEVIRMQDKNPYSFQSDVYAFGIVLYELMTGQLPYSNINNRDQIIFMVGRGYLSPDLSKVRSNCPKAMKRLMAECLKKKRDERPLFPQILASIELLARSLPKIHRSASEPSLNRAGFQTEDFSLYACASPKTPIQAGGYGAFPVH
320 wild-type protein kinases (Homo sapiens, UniProt Q16816), sequence (Q16816 whole entry): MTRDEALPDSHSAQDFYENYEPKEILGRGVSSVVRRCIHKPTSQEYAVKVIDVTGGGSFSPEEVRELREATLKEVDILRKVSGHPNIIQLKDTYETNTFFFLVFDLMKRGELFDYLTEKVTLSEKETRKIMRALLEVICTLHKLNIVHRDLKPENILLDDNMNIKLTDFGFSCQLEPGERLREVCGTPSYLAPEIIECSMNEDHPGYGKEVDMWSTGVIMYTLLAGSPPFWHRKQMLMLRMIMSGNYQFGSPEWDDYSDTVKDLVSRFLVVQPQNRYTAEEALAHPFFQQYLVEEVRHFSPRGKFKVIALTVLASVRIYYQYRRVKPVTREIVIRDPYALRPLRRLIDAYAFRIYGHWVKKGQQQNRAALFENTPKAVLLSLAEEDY

Row | Compound | Residual activity ([1]; PHKG1, 1.0E-06 M) | Residual activity ([1]; PHKG1, 1.0E-07 M) | Residual activity ([2]; NEK4, 1.0E-06 M) | Residual activity ([2]; NEK4, 1.0E-07 M) | Residual activity, TRK-A ([3]; assay conc. 1.0E-06 M) | Residual activity, TRK-A ([3]; assay conc. 1.0E-07 M) | Residual activity ([4]; CDK2/CycA2, 1.0E-06 M) | Residual activity ([4]; CDK2/CycA2, 1.0E-07 M) | Residual activity ([4]; CDK2/CycE1, 1.0E-06 M) | Residual activity ([4]; CDK2/CycE1, 1.0E-07 M) | Residual activity ([5]; NEK11, 1.0E-06 M) | Residual activity ([5]; NEK11, 1.0E-07 M) | Residual activity ([6]; CDK6/CycD1, 1.0E-06 M) | Residual activity ([6]; CDK6/CycD1, 1.0E-07 M) | Residual activity ([6]; CDK6/CycD3, 1.0E-06 M) | Residual activity ([6]; CDK6/CycD3, 1.0E-07 M) | Residual activity, STK33 ([7]; assay conc. 1.0E-06 M) | Residual activity, STK33 ([7]; assay conc. 1.0E-07 M) | Residual activity ([8]; PHKG2, 1.0E-06 M) | Residual activity ([8]; PHKG2, 1.0E-07 M) | also measured
1 | C#Cc1cc(Nc2ncnc3cc(I)ccc23)ccc1Cl [Compound 41] | 94 % of control | 97 % of control | 94 % of control | 100 % of control | 107 % of control | 100 % of control | 90 % of control | 88 % of control | 76 % of control | 97 % of control | 95 % of control | 82 % of control | 98 % of control | 92 % of control | 103 % of control | 102 % of control | 89 % of control | 98 % of control | 98 % of control | 94 % of control | Residual activity ([9]; 1.0E-06 M): 92 % of control; Residual activity ([9]; 1.0E-07 M): 110 % of control; Residual activity ([10]; 1.0E-06 M): 115 % of control; Residual activity ([10]; 1.0E-07 M): 145 % of control; Residual activity ([11]; 1.0E-06 M): 126 % of control; Residual activity ([11]; 1.0E-07 M): 105 % of control; Residual activity ([12]; ACV-RL1, 1.0E-06 M): 105 % of control; Residual activity ([12]; ACV-RL1, 1.0E-07 M): 102 % of control; Residual activity, S6K ([13]; assay conc. 1.0E-06 M): 123 % of control; Residual activity, S6K ([13]; assay conc. 1.0E-07 M): 135 % of control; Residual activity ([14]; MLK4, 1.0E-06 M): 85 % of control; Residual activity ([14]; MLK4, 1.0E-07 M): 79 % of control
2 | C#Cc1cc(Nc2ncnc3cc(OC)c(OC)cc23)ccc1Cl [Compound 45] | 85 % of control | 108 % of control | 84 % of control | 106 % of control | 87 % of control | 106 % of control | 97 % of control | 95 % of control | 86 % of control | 91 % of control | 103 % of control | 106 % of control | 86 % of control | 96 % of control | 105 % of control | 95 % of control | 76 % of control | 100 % of control | 103 % of control | 95 % of control | Residual activity ([9]; 1.0E-06 M): 92 % of control; Residual activity ([9]; 1.0E-07 M): 106 % of control; Residual activity ([10]; 1.0E-06 M): 108 % of control; Residual activity ([10]; 1.0E-07 M): 112 % of control; Residual activity ([11]; 1.0E-06 M): 128 % of control; Residual activity ([11]; 1.0E-07 M): 99 % of control; Residual activity ([12]; ACV-RL1, 1.0E-06 M): 106 % of control; Residual activity ([12]; ACV-RL1, 1.0E-07 M): 110 % of control; Residual activity, S6K ([13]; assay conc. 1.0E-06 M): 121 % of control; Residual activity, S6K ([13]; assay conc. 1.0E-07 M): 122 % of control; Residual activity ([14]; MLK4, 1.0E-06 M): 83 % of control; Residual activity ([14]; MLK4, 1.0E-07 M): 85 % of control

— article PMC9329436, “Optimization of the 4-anilinoquin(az)oline scaffold as epidermal growth factor receptor (EGFR) inhibitors for chordoma utilizing a toxicology profiling assay platform” (Scientific Reports, 2022)
